# According to PubChem BioAssay (NCI):
#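 GI50 = concentration required for 50% inhibition of growth. Definition used: TGI = concentration required for complete inhibition of growth.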
# How the values were obtained:
# Test in all cases: growth of human tumour cells (NCI), 384-well format
# U251 glioblastoma = system: U251 glioblastoma
# PC-3 prostate = system: PC-3 prostate
# ACHN renal = system: ACHN renal
# OVCAR-3 ovarian = system: OVCAR-3 ovarian
# MDA-MB-435 melanoma = system: MDA-MB-435 melanoma
# RPMI-8226 leukemia = system: RPMI-8226 leukemia
# TK-10 renal = system: TK-10 renal
# SNB-19 CNS = system: SNB-19 CNS
# OVCAR-8 ovarian = system: OVCAR-8 ovarian
# 786-0 renal = system: 786-0 renal
# OVCAR-5 ovarian = system: OVCAR-5 ovarian
# SK-MEL-2 melanoma = system: SK-MEL-2 melanoma
# SK-MEL-5 melanoma = system: SK-MEL-5 melanoma
# IGROV1 ovarian = system: IGROV1 ovarian
# DU-145 prostate = system: DU-145 prostate
# HCT-15 colon = system: HCT-15 colon
# HOP-92 NSCLC = system: HOP-92 NSCLC
# LOX IMVI melanoma = system: LOX IMVI melanoma
# MDA-MB-468 breast = system: MDA-MB-468 breast
# UACC-62 melanoma = system: UACC-62 melanoma
# SK-MEL-28 melanoma = system: SK-MEL-28 melanoma
# SF-295 CNS = system: SF-295 CNS
# NCI-H322M lung = system: NCI-H322M lung
# HT29 colon = system: HT29 colon
# OVCAR-4 ovarian = system: OVCAR-4 ovarian
# MDA-MB-231 breast = system: MDA-MB-231 breast
# CCRF-CEM leukemia = system: CCRF-CEM leukemia
# MCF7 breast = system: MCF7 breast
# SW-620 colon = system: SW-620 colon
# NCI/ADR-RES ovarian = system: NCI/ADR-RES ovarian
# NCI-H460 NSCLC = system: NCI-H460 NSCLC
# UACC-257 melanoma = system: UACC-257 melanoma
# SR leukemia = system: SR leukemia
# MALME-3M melanoma = system: MALME-3M melanoma
# A549 NSCLC = system: A549 NSCLC
# NCI-H522 lung = system: NCI-H522 lung
# SF-268 CNS = system: SF-268 CNS
# NCI-H226 lung = system: NCI-H226 lung
# SK-OV-3 ovarian = system: SK-OV-3 ovarian
# M14 melanoma = system: M14 melanoma
# UO-31 renal = system: UO-31 renal
# SF-539 CNS = system: SF-539 CNS
# HOP-62 NSCLC = system: HOP-62 NSCLC
# NCI-H23 lung = system: NCI-H23 lung
# KM12 colon = system: KM12 colon
# CAKI-1 renal = system: CAKI-1 renal
# SN12C renal = system: SN12C renal
# COLO 205 colon = system: COLO 205 colon
# HCC-2998 colon = system: HCC-2998 colon
# RXF 393 renal = system: RXF 393 renal
# HCT-116 colon = system: HCT-116 colon
# HL-60(TB) leukemia = system: HL-60(TB) leukemia
# BT-549 breast = system: BT-549 breast
# K-562 leukemia = system: K-562 leukemia
# A498 renal = system: A498 renal
# T-47D breast = system: T-47D breast
# MOLT-4 leukemia = system: MOLT-4 leukemia
smiles,measurement,setting,value
C=CC(=O)N1CCN(c2nc(OC[C@@H]3CCCN3C)nc3c2CCN(c2cccc4cccc(C)c24)C3)C[C@@H]1CC#N,GI50,U251 glioblastoma,1.01 µM
same,TGI,U251 glioblastoma,2.2 µM
same,GI50,PC-3 prostate,0.759 µM
same,TGI,PC-3 prostate,1.98 µM
same,GI50,ACHN renal,0.35 µM
same,TGI,ACHN renal,1.6 µM
same,GI50,OVCAR-3 ovarian,0.362 µM
same,TGI,OVCAR-3 ovarian,1.36 µM
same,GI50,MDA-MB-435 melanoma,1.22 µM
same,TGI,MDA-MB-435 melanoma,2.48 µM
same,GI50,RPMI-8226 leukemia,0.193 µM
same,TGI,RPMI-8226 leukemia,0.377 µM
same,GI50,TK-10 renal,0.505 µM
same,TGI,TK-10 renal,1.7 µM
same,GI50,SNB-19 CNS,1.57 µM
same,TGI,SNB-19 CNS,2.93 µM
same,GI50,OVCAR-8 ovarian,1.05 µM
same,TGI,OVCAR-8 ovarian,2.24 µM
same,GI50,786-0 renal,0.705 µM
same,TGI,786-0 renal,1.99 µM
same,GI50,OVCAR-5 ovarian,1.47 µM
same,TGI,OVCAR-5 ovarian,2.8 µM
same,GI50,SK-MEL-2 melanoma,0.194 µM
same,TGI,SK-MEL-2 melanoma,0.595 µM
same,GI50,SK-MEL-5 melanoma,1.5 µM
same,TGI,SK-MEL-5 melanoma,2.84 µM
same,GI50,IGROV1 ovarian,1.39 µM
same,TGI,IGROV1 ovarian,2.7 µM
same,GI50,DU-145 prostate,1.4 µM
same,TGI,DU-145 prostate,2.71 µM
same,GI50,HCT-15 colon,1.01 µM
same,TGI,HCT-15 colon,2.19 µM
same,GI50,HOP-92 NSCLC,0.223 µM
same,TGI,HOP-92 NSCLC,0.687 µM
same,GI50,LOX IMVI melanoma,1.59 µM
same,TGI,LOX IMVI melanoma,2.95 µM
same,GI50,MDA-MB-468 breast,0.367 µM
same,TGI,MDA-MB-468 breast,1.02 µM
same,GI50,UACC-62 melanoma,0.411 µM
same,TGI,UACC-62 melanoma,1.5 µM
same,GI50,SK-MEL-28 melanoma,1.62 µM
same,TGI,SK-MEL-28 melanoma,2.98 µM
same,GI50,SF-295 CNS,1.59 µM
same,TGI,SF-295 CNS,2.94 µM
same,GI50,NCI-H322M lung,1.44 µM
same,TGI,NCI-H322M lung,2.76 µM
same,GI50,HT29 colon,1.26 µM
same,TGI,HT29 colon,2.54 µM
same,GI50,OVCAR-4 ovarian,0.465 µM
same,TGI,OVCAR-4 ovarian,1.69 µM
same,GI50,MDA-MB-231 breast,0.312 µM
same,TGI,MDA-MB-231 breast,1.27 µM
same,GI50,CCRF-CEM leukemia,0.133 µM
same,TGI,CCRF-CEM leukemia,0.265 µM
same,GI50,MCF7 breast,0.834 µM
same,TGI,MCF7 breast,2.09 µM
same,GI50,SW-620 colon,1.31 µM
same,TGI,SW-620 colon,2.62 µM
same,GI50,NCI/ADR-RES ovarian,1.61 µM
same,TGI,NCI/ADR-RES ovarian,2.97 µM
same,GI50,NCI-H460 NSCLC,0.754 µM
same,TGI,NCI-H460 NSCLC,2.06 µM
same,GI50,UACC-257 melanoma,0.833 µM
same,TGI,UACC-257 melanoma,2.07 µM
same,GI50,SR leukemia,0.134 µM
same,TGI,SR leukemia,0.267 µM
same,GI50,MALME-3M melanoma,1.22 µM
same,TGI,MALME-3M melanoma,2.46 µM
same,GI50,A549 NSCLC,1.31 µM
same,TGI,A549 NSCLC,2.61 µM
same,GI50,NCI-H522 lung,0.343 µM
same,TGI,NCI-H522 lung,1.39 µM
same,GI50,SF-268 CNS,0.495 µM
same,TGI,SF-268 CNS,1.67 µM
same,GI50,NCI-H226 lung,1.16 µM
same,TGI,NCI-H226 lung,2.39 µM
same,GI50,SK-OV-3 ovarian,0.54 µM
same,TGI,SK-OV-3 ovarian,1.86 µM
same,GI50,M14 melanoma,1.27 µM
same,TGI,M14 melanoma,2.53 µM
same,GI50,UO-31 renal,0.983 µM
same,TGI,UO-31 renal,2.15 µM
same,GI50,SF-539 CNS,0.644 µM
same,TGI,SF-539 CNS,1.94 µM
same,GI50,HOP-62 NSCLC,< 0.01 µM
same,TGI,HOP-62 NSCLC,1.12 µM
same,GI50,NCI-H23 lung,< 0.01 µM
same,GI50,KM12 colon,1.06 µM
same,TGI,KM12 colon,2.26 µM
same,GI50,CAKI-1 renal,0.422 µM
same,TGI,CAKI-1 renal,1.43 µM
same,GI50,SN12C renal,1.24 µM
same,TGI,SN12C renal,2.5 µM
same,GI50,COLO 205 colon,1.23 µM
same,TGI,COLO 205 colon,2.49 µM
same,GI50,HCC-2998 colon,1.23 µM
same,TGI,HCC-2998 colon,2.49 µM
same,GI50,RXF 393 renal,0.189 µM
same,TGI,RXF 393 renal,0.575 µM
same,GI50,HCT-116 colon,0.526 µM
same,TGI,HCT-116 colon,1.74 µM
same,GI50,HL-60(TB) leukemia,0.181 µM
same,TGI,HL-60(TB) leukemia,0.322 µM
same,GI50,BT-549 breast,0.265 µM
same,TGI,BT-549 breast,0.999 µM
same,GI50,K-562 leukemia,0.918 µM
same,TGI,K-562 leukemia,2.13 µM
same,GI50,A498 renal,0.485 µM
same,TGI,A498 renal,1.7 µM
same,GI50,T-47D breast,0.637 µM
same,TGI,T-47D breast,2.01 µM
same,GI50,MOLT-4 leukemia,0.16 µM
same,TGI,MOLT-4 leukemia,0.299 µM
NC(=O)NO,GI50,CCRF-CEM leukemia,76.3 µM
same,GI50,HL-60(TB) leukemia,81.9 µM
